Experiment: Rabbit Cornea Homogenate stability (esterase) assay, Method 2
Assay type: in vitro ADME
Settings: for Esterase % Lifitegrast formation at 45 min: 37° C., Method 2 (DPBS pH 7.4); for API Formation rate (%/min): Method 2
Method: Determining Rabbit Cornea Homogenate stability of the test compounds was performed using HPLC-MS or UPLC-MS. The assay was performed at two concentrations of Rabbit Cornea Homogenate (0.15 mg/mL and 0.45 mg/mL total protein) so that any hydrolysis observed can be assigned as esterase dependent or not.
Three to five rabbit corneas (e.g. New Zealand Whites (NZW) or Dutch Belted (DB)) of approx. 50 mg each were sliced and scraped with a scalpel and tweezers until reduced to small (1-3 mm), thin pieces. These were transferred into a glass vial containing approximately 2 mL of cold DPBS pH 7.4 buffer.
Sample was cooled intermittently on ice and shear homogenized for 3 minutes, then centrifuged for 3 min at 13,000 g. The supernatant was pipetted off into a vial, and total protein concentration determined at 280 nm. Sample was stored at −78° C.
10 mM Compound DMSO stocks were diluted to 10 μM in a glass vial: 10 μL of 10 mM Compound stock was added to 9,990 μL DPBS, pH 7.4 buffer. Esterase homogenate was diluted to 300 ng/μL and 900 ng/μL in DPBS. […]
A heater shaker was set to 37° C. Into a suitable 96 well plate (Run Plate), 80 μL of 300 or 900 ng/μL esterase homogenate was pipetted into two rows as compounds were analyzed in duplicate (0 min, 2 min, 5 min, 10 min, 20 min and 45 min). The plate was sealed and then warmed at 37° C. for 5 min.
Two 96 shallow-well plates were placed on ice (Kill Plates). To these, 180 μL of 60:40 MeCN-H2O+0.1% acetic acid were added to required rows. The plates were sealed to minimise evaporation.
To both rows of the Run Plate, 80 μL of 10 μM compound solution was added. At the appropriate time point, 20 μL of the assay mixture was added to the matching kill plate well containing 180 μL of 60:40 cold MeCN-H2O+0.1% acetic acid. For lipoic acid analysis, samples were analysed as soon as practicable by LCMS (Waters Xevo TQ-S). For parent conjugate and parent analysis the samples were diluted further 1 in 10: 20 μL supernatant was added to 180 μL of 50:50 MeCN—H2O.
Parent conjugate, parent and keratolytic concentrations were determined against appropriate standard response curves and the half-life (T½) of the parent conjugate was calculated using the peak area or the measured concentration of the parent conjugate at each time point in the linear region of the log-linear plot.

[1] = Cornea Homogenate Conc 0.15 mg/mL
[2] = Cornea Homogenate Conc 0.45 mg/mL

| Structure (SMILES) | API Formation rate (%/min) [1] | API Formation rate (%/min) [2] | Esterase % Lifitegrast formation at 45 min [1] | Esterase % Lifitegrast formation at 45 min [2] |
| --- | --- | --- | --- | --- |
| CC(=O)NC(CSSCC(NC(C)=O)C(=O)OC(C)OC(=O)[C@H](Cc1cccc(S(C)(=O)=O)c1)NC(=O)c1c(Cl)cc2c(c1Cl)CCN(C(=O)c1ccc3ccoc3c1)C2)C(=O)O (some centres unmarked) [Compound 25] | a (API formation rate <0.5%/min) | a (API formation rate <0.5%/min) | A (percent active pharmaceutical ingredient (API) formation <25%) | A (percent active pharmaceutical ingredient (API) formation <25%) |
| CC(=O)N1C(C(=O)OC(C)OC(=O)[C@H](Cc2cccc(S(C)(=O)=O)c2)NC(=O)c2c(Cl)cc3c(c2Cl)CCN(C(=O)c2ccc4ccoc4c2)C3)CSC1(C)C (some centres unmarked) [Compound 26] | a (API formation rate <0.5%/min) | a (API formation rate <0.5%/min) | A (percent active pharmaceutical ingredient (API) formation <25%) | A (percent active pharmaceutical ingredient (API) formation <25%) |
| CC(=O)N[C@@H](CS)C(=O)OCCOCCOCCOCCOC(=O)OC(C)OC(=O)[C@H](Cc1cccc(S(C)(=O)=O)c1)NC(=O)c1c(Cl)cc2c(c1Cl)CCN(C(=O)c1ccc3ccoc3c1)C2 (some centres unmarked) [Compound 29] | a (API formation rate <0.5%/min) | a (API formation rate <0.5%/min) | A (percent active pharmaceutical ingredient (API) formation <25%) | A (percent active pharmaceutical ingredient (API) formation <25%) |
| CC(=O)N[C@@H](CS)C(=O)OCCOCCOCCOCCOCCOCCOCCOCCOC(=O)OC(C)OC(=O)[C@H](Cc1cccc(S(C)(=O)=O)c1)NC(=O)c1c(Cl)cc2c(c1Cl)CCN(C(=O)c1ccc3ccoc3c1)C2 (some centres unmarked) [Compound 30] | a (API formation rate <0.5%/min) | a (API formation rate <0.5%/min) | A (percent active pharmaceutical ingredient (API) formation <25%) | A (percent active pharmaceutical ingredient (API) formation <25%) |
| CS(=O)(=O)c1cccc(C[C@H](NC(=O)c2c(Cl)cc3c(c2Cl)CCN(C(=O)c2ccc4ccoc4c2)C3)C(=O)OCCO)c1 [Compound 32] | a (API formation rate <0.5%/min) | b (API formation rate 0.5-1.0%/min) | A (percent active pharmaceutical ingredient (API) formation <25%) | B (percent API formation 25% to 50%) |
| CS(=O)(=O)c1cccc(C[C@H](NC(=O)c2c(Cl)cc3c(c2Cl)CCN(C(=O)c2ccc4ccoc4c2)C3)C(=O)OCCCO)c1 [Compound 33] | b (API formation rate 0.5-1.0%/min) | c (API formation rate 1.0-1.5%/min) | B (percent API formation 25% to 50%) | B (percent API formation 25% to 50%) |
| CS(=O)(=O)c1cccc(C[C@H](NC(=O)c2c(Cl)cc3c(c2Cl)CCN(C(=O)c2ccc4ccoc4c2)C3)C(=O)OCCOC(=O)CCCC[C@@H]2CCSS2)c1 [Compound 34] | a (API formation rate <0.5%/min) | a (API formation rate <0.5%/min) | A (percent active pharmaceutical ingredient (API) formation <25%) | A (percent active pharmaceutical ingredient (API) formation <25%) |
| CS(=O)(=O)c1cccc(C[C@H](NC(=O)c2c(Cl)cc3c(c2Cl)CCN(C(=O)c2ccc4ccoc4c2)C3)C(=O)OCCCOC(=O)CCCC[C@@H]2CCSS2)c1 [Compound 35] | a (API formation rate <0.5%/min) | a (API formation rate <0.5%/min) | A (percent active pharmaceutical ingredient (API) formation <25%) | A (percent active pharmaceutical ingredient (API) formation <25%) |
| CS(=O)(=O)c1cccc(C[C@H](NC(=O)c2c(Cl)cc3c(c2Cl)CCN(C(=O)c2ccc4ccoc4c2)C3)C(=O)OCOC(=O)CCCC[C@@H]2CCSS2)c1 [Compound 36] | a (API formation rate <0.5%/min) | b (API formation rate 0.5-1.0%/min) | A (percent active pharmaceutical ingredient (API) formation <25%) | B (percent API formation 25% to 50%) |
| CCOC(=O)CCC(=O)OC(C)OC(=O)[C@H](Cc1cccc(S(C)(=O)=O)c1)NC(=O)c1c(Cl)cc2c(c1Cl)CCN(C(=O)c1ccc3ccoc3c1)C2 (some centres unmarked) [Compound 37] | c (API formation rate 1.0-1.5%/min) | c (API formation rate 1.0-1.5%/min) | C (percent API formation 51% to 75%) | D (percent API formation >75%) |

Further lines, with some results ahead:

| API Formation rate (%/min) [1] | API Formation rate (%/min) [2] | Structure (SMILES) | Esterase % Lifitegrast formation at 45 min [1] | Esterase % Lifitegrast formation at 45 min [2] |
| --- | --- | --- | --- | --- |
| d (API formation rate >1.5%/min) | d (API formation rate >1.5%/min) | CC(OC(=O)OCCO)OC(=O)[C@H](Cc1cccc(S(C)(=O)=O)c1)NC(=O)c1c(Cl)cc2c(c1Cl)CCN(C(=O)c1ccc3ccoc3c1)C2 (some centres unmarked) [Compound 42] | C (percent API formation 51% to 75%) | C (percent API formation 51% to 75%) |
| b (API formation rate 0.5-1.0%/min) | c (API formation rate 1.0-1.5%/min) | CC(OC(=O)OCCCO)OC(=O)[C@H](Cc1cccc(S(C)(=O)=O)c1)NC(=O)c1c(Cl)cc2c(c1Cl)CCN(C(=O)c1ccc3ccoc3c1)C2 (some centres unmarked) [Compound 43] | B (percent API formation 25% to 50%) | C (percent API formation 51% to 75%) |
| a (API formation rate <0.5%/min) | a (API formation rate <0.5%/min) | CC(=O)N[C@@H](CSSCC[C@@H](CCCCC(=O)OC(C)OC(=O)[C@H](Cc1cccc(S(C)(=O)=O)c1)NC(=O)c1c(Cl)cc2c(c1Cl)CCN(C(=O)c1ccc3ccoc3c1)C2)SSC[C@H](NC(C)=O)C(=O)O)C(=O)O (some centres unmarked) [Compound 44] | A (percent active pharmaceutical ingredient (API) formation <25%) | A (percent active pharmaceutical ingredient (API) formation <25%) |
| a (API formation rate <0.5%/min) | a (API formation rate <0.5%/min) | CC(OC(=O)OCCOC(=O)CCCC[C@H]1CCSS1)OC(=O)[C@H](Cc1cccc(S(C)(=O)=O)c1)NC(=O)c1c(Cl)cc2c(c1Cl)CCN(C(=O)c1ccc3ccoc3c1)C2 (some centres unmarked) [Compound 46] | A (percent active pharmaceutical ingredient (API) formation <25%) | A (percent active pharmaceutical ingredient (API) formation <25%) |
| a (API formation rate <0.5%/min) | a (API formation rate <0.5%/min) | CC(OC(=O)OCCCOC(=O)CCCC[C@@H]1CCSS1)OC(=O)[C@H](Cc1cccc(S(C)(=O)=O)c1)NC(=O)c1c(Cl)cc2c(c1Cl)CCN(C(=O)c1ccc3ccoc3c1)C2 (some centres unmarked) [Compound 47] | A (percent active pharmaceutical ingredient (API) formation <25%) | A (percent active pharmaceutical ingredient (API) formation <25%) |
| b (API formation rate 0.5-1.0%/min) | c (API formation rate 1.0-1.5%/min) | CC(OC(=O)CCC(=O)OC(C)(C)C)OC(=O)[C@H](Cc1cccc(S(C)(=O)=O)c1)NC(=O)c1c(Cl)cc2c(c1Cl)CCN(C(=O)c1ccc3ccoc3c1)C2 (some centres unmarked) [Compound 48] | B (percent API formation 25% to 50%) | C (percent API formation 51% to 75%) |
| a (API formation rate <0.5%/min) | a (API formation rate <0.5%/min) | CC(=O)N[C@@H](CSSC[C@H](NC(C)=O)C(=O)OC(C)OC(=O)[C@H](Cc1cccc(S(C)(=O)=O)c1)NC(=O)c1c(Cl)cc2c(c1Cl)CCN(C(=O)c1ccc3ccoc3c1)C2)C(=O)OC(C)OC(=O)[C@H](Cc1cccc(S(C)(=O)=O)c1)NC(=O)c1c(Cl)cc2c(c1Cl)CCN(C(=O)c1ccc3ccoc3c1)C2 (some centres unmarked) [Compound 49] | A (percent active pharmaceutical ingredient (API) formation <25%) | A (percent active pharmaceutical ingredient (API) formation <25%) |

From US20230399317A1, “COMPOUNDS AND METHODS FOR THE TREATMENT OF OCULAR DISORDERS” (Azura Ophthalmics Ltd., priority 2020, published 2023)
